{"source": "patent US20240262844A1", "about": "“PYRIDINIUM SALTS AND METHODS OF USE” (UNIVERSITY OF WYOMING, priority 2023, published 2024)", "key": {"[1]": {"target": "T1, β2-Microglobulin (11.7 kDa) (Homo sapiens, UniProt P61769)", "T1 construct": "β2-microglobulin (Human Urine≥98% (SDS-PAGE)); purchased Lee Biosolutions; host or cells: human urine", "T1 sequence (P61769 21-119)": "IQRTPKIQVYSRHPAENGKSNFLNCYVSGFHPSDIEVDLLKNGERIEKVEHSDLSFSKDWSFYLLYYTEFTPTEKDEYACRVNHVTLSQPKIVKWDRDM", "assay": "Photochemical labeling of β2-microglobulin (LC/MS, MS-MS)", "assay_type": "biochemical", "protocol": "General Procedure B: Photochemical Irradiation of Peptides and Proteins: To a 2 mL Pyrex LC/MS vial (Thermo model #03-391-39) were sequentially added solutions containing the desired biomolecule, glutathione (GSH), pyridinium salt, and ammonium acetate (NH4OAc). The resulting solution was diluted to a final volume of 500 μL and then sparged using nitrogen for a minimum of 30 minutes prior to irradiation. The actively sparging solution was then placed in an EvoluChem™ PhotoRedOx Box photoreactor that was equipped with a Kessil, PR160 427 nm LED Lamp and was then irradiated (100% lamp intensity) for the designated time at room temperature while maintaining active sparging. The resultant reaction mixture was then analyzed directly by LC/MS. Analysis of labeling outcomes using LC/MS was performed either by extracted ion chromatogram intensities (method A) or by integrating the area under the peaks associated with peptide content (method B). […]\nLabeling of β2-Microglobulin with Pyridinium Salt 2a (B2-Microglobulin-2a Conjugate). […] The reaction mixture was directly analyzed by LC/MS using method A and was estimated to have proceeded with 88% conversion with a >20:1 mono:di labeled ratio and 7% glutathionylation of all unlabeled and labeled protein content. β2-Microglobulin-2a conjugate (retention time (Tr)=3.26-4.70 min). […]"}, "[2]": {"assay": "Stern-Volmer fluorescence quenching analysis", "assay_type": "physicochemical", "conditions": "100 μM pyridinium salt in 20 mM NH4OAc pH 6.9, increasing NATA, 375 nm excitation", "protocol": "FIG. 7 is a Stern-Volmer plot of florescence quenching of pyridinium salt 2a with a small molecule tryptophan analog N-acetyltryptophanamide (NATA) according to at least one embodiment of the present disclosure. The Stern-Volmer plot was generated by excitation of a 100 μM solution of pyridinium salt 2a in 20 mM NH4OAc pH 6.9 in the presence of increasing concentrations of NATA. Analyses were performed at 375 nm excitation. The calculated Kq, assuming 11 (0.2548 ns) quenching, was determined to be about 1.019E5 M^−1s^−1. The calculated Kq, assuming τ2 (3.399 ns) quenching, was determined to be about 7.638E3 M^−1s^−1."}}, "note": "Structures can show the parent of a compound that is named as a salt.", "data": [{"molecule": "COC(=O)N(C)[n+]1c(C)cc(-c2ccc3cc(OC)ccc3c2)cc1C", "note": "[Pyridinium salt 2a, 1-((methoxycarbonyl)(methyl)amino)-4-(6-methoxynapthalen-2-yl)-2,6-dimethylpyridin-1-ium tetrafluoroborate]", "values": [{"measurement": "glutathionylation of all unlabeled and labeled protein content", "setting": "[1]; 10 μM β2-microglobulin, 200 μM pyridinium salt, 1 mM glutathione, 30 minutes", "value": 7, "unit": "%"}, {"measurement": "site of tryptophan modification", "setting": "[1]; digestion/MS-MS", "value": "Trp-60"}, {"measurement": "calculated Kq, assuming τ1 (0.2548 ns) quenching", "setting": "[2]", "value": "about 1.019E5 M^−1s^−1"}, {"measurement": "calculated Kq, assuming τ2 (3.399 ns) quenching", "setting": "[2]", "value": "about 7.638E3 M^−1s^−1"}]}]}
